Experiment: recombinant UMI read abundance after kanamycin selection (control-corrected) (log10(CPM+1)); higher = more efficient recombination; extreme values may be limits of the assay; sequences stand for … in AGTGCAGAGAAAATCGGCCAGTTTTCTCTGCCTGCAGTCCGCATGCCGTGGGACCCCTTGGGTTCTAACCTGTTGCCTAGATTTATGCAGCGGACTGCCTTTCTCCCAAAGTGATAAACCGG…AGGTTGGTTTCACT; site = the 11-nt donor
Outline: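 Each donor and donor-binding-loop pair was tracked by a 12-nt UMI on a plasmid carrying a promoterless kanamycin gene. With a second plasmid supplying a fixed target and T7-inducible IS621 bridge recombinase, the pool was plated in Escherichia coli on IPTG (0.07 mM) plus kanamycin or unselected. Sequencing of recombinant UMIs across the donor–target junction gave counts expressed as log10(CPM+1) after replicate averaging and control-derived scaling.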
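Further: IS621 bridge recombinase in Escherichia coli cells against a fixed T5 target plasmid.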

Sequence	recombinant UMI read abundance (log10)
AGATAGGCATGGACCGGTTTTCCCGGTAATCCGTATTTGCT (site AGACAGGCTAG)	2.12
AGATAGGCATGGACCGGTTTTCCCGGTAATCCGTATTTGCT (site AGAGAGGCTAG)	0.862
AGATAGGCATGGACCGGTTTTCCCGGTAATCCGTATTTGCT (site AGATAGGCTAG)	2.66
AGATAGGCATGGACCGGTTTTCCCGGTAATCCGTATTTGTA (site AGATAGGCTTA)	2.52
AGATCCCCATGGACCGGTTTTCCCGGTAATCCGTATTTGTA (site AGATCCCCTTA)	0.595
AGATGAGCATGGACCGGTTTTCCCGGTAATCCGTATTTGCA (site AGATGAGCTTG)	2.71
AGATGTTCATGGACCGGTTTTCCCGGTAATCCGTATTTGTT (site AGATGTTCTAA)	1.45
AGATTAGCATGGACCGGTTTTCCCGGTAATCCGTATTTGAT (site AGATTAGCTAT)	2.09
AGCAACGCATGGACCGGTTTTCCCGGTAATCCGTATTTGTG (site AGCAACGCTCA)	1.36
AGCAATACATGGACCGGTTTTCCCGGTAATCCGTATTTGCA (site AGCAATACTTG)	1.73
AGCAATACATGGACCGGTTTTCCCGGTAATCCGTATTTGCA (site AGGAAGACTTG)	0
AGCACGGCATGGACCGGTTTTCCCGGTAATCCGTATTTGCT (site AGCACGGCTAG)	1.9
AGCACTACATGGACCGGTTTTCCCGGTAATCCGTATTTGAC (site AGAACTACTGT)	1.25
AGCACTACATGGACCGGTTTTCCCGGTAATCCGTATTTGAC (site AGCACTACTGT)	1.85
AGCACTACATGGACCGGTTTTCCCGGTAATCCGTATTTGAC (site AGGACTACTGT)	0.927
AGCACTACATGGACCGGTTTTCCCGGTAATCCGTATTTGAC (site AGTACTACTGT)	0.741

Sequence	recombinant UMI read abundance (log10)
AGCATCCCATGGACCGGTTTTCCCGGTAATCCGTATTTGGC (site AGCATCCCTGC)	1.74
AGCCAAGCATGGACCGGTTTTCCCGGTAATCCGTATTTGAG (site AACCAAGCTCT)	0.0428
AGCCAAGCATGGACCGGTTTTCCCGGTAATCCGTATTTGAG (site ACCCAAGCTCT)	0.641
AGCCAAGCATGGACCGGTTTTCCCGGTAATCCGTATTTGAG (site AGCCAAGCTCT)	1.3
AGCCAAGCATGGACCGGTTTTCCCGGTAATCCGTATTTGAG (site ATCCAAGCTCT)	0.655
AGCCGCTCATGGACCGGTTTTCCCGGTAATCCGTATTTGAT (site AGCCGCTCTAT)	1.65
AGCCGTCCATGGACCGGTTTTCCCGGTAATCCGTATTTGAT (site AACCGTCCTAT)	0.00909
AGCCGTCCATGGACCGGTTTTCCCGGTAATCCGTATTTGAT (site ACCCGTCCTAT)	0
AGCCGTCCATGGACCGGTTTTCCCGGTAATCCGTATTTGAT (site AGCCGTCCTAT)	1.09
AGCCGTCCATGGACCGGTTTTCCCGGTAATCCGTATTTGAT (site ATCCGTCCTAT)	0.0112
AGCCTCTCATGGACCGGTTTTCCCGGTAATCCGTATTTGAC (site AGCCTATCTGT)	0
AGCCTCTCATGGACCGGTTTTCCCGGTAATCCGTATTTGAC (site AGCCTCTCTGT)	0
AGCCTCTCATGGACCGGTTTTCCCGGTAATCCGTATTTGAC (site AGCCTGTCTGT)	0
AGCCTCTCATGGACCGGTTTTCCCGGTAATCCGTATTTGAC (site AGCCTTTCTGT)	0
AGCCTTACATGGACCGGTTTTCCCGGTAATCCGTATTTGAC (site AGCCTTACTGT)	2.52
AGCCTTACATGGACCGGTTTTCCCGGTAATCCGTATTTGAC (site AGCCTTCCTGT)	0
